# Results published in paper PMC7730206, “2-Deoxy-D-glucose Promotes Buforin IIb-Induced Cytotoxicity in Prostate Cancer DU145 Cells and Xenograft Tumors” (Molecules, 2020).
# Entries after “also recorded” stand apart in the source; their conditions may differ.
# Legend:
# [1] = tested on: DU145 cells; test: ROS assay (H2DCFDA, flow cytometry); assay type: cell-based, human; settings: 2 mM 2-DG 12 h, with or without 2 μM buforin IIb 6 h; combination compared with 2 μM buforin alone, p < 0.001
# Method: Intracellular ROS level was measured by detecting the fluorescence intensity of the peroxide sensitive fluorescent probe H2DCFDA. Briefly, DU145 cells (1 × 10^5 cells/mL) were seeded into 24-well plates and treated with 2-DG (2 mM) for 12 h, then treated with or without buforin IIb (2 μM) for 6 h, followed by incubation with 10 μM H2DCFDA for 30 min in the dark. The fluorescence intensity was measured at 488 nm by flow cytometry to evaluate the production of ROS.
# [2] = tested on: DU145 cells; test: L-lactate production; assay type: cell-based, human; settings: 2 mM 2-DG 24 h; 2 μM buforin IIb 12 h; combination: 2-DG pretreatment 12 h then buforin IIb 12 h; lactate in medium
# Method: (§1) Cells were seeded at approximately 3 × 10^5 cells/mL in 6-well plates and treated with 2-DG (2 mM) alone for 24 h and buforin IIb alone (2 μM) or both for 12 h. After centrifugation, the culture medium and cells were collected to estimate the L-lactate and ATP content using the ATP content assay kit (Solarbio, Beijing, China) and L-lactate assay kit (Jiancheng Bioengineering, Nanjing, China) according to the manufacturer’s protocol. […] The collected cells were subjected to ultrasonic disruption and centrifuged at 8000× g for 10 min at 4 °C to collect the supernatant for intracellular ATP detection. Creatine kinase catalyzes the production of phosphocreatine from creatine and ATP. The level of ATP was determined by detecting the phosphocreatine content though the colorimetric method of phosphomolybdic acid at 700 nm. Six replicates were performed for each group, and the experiments were repeated three times to confirm the results.
# [3] = tested on: DU145 xenograft tumors; test: DU145 xenograft tumor experiment; assay type: in vivo, BALB/c nude mice; settings: buforin IIb 5 mg/kg tail vein, 2-DG 400 mg/kg oral gavage, days 1, 2, 3, 6, 9; tumor weight on day 12 vs PBS; n = 5 per group
# Description: Male BALB/c nude mice (4-6 weeks old) were obtained from the Model Animal Research Center of Nanjing University. All of the animal experiments were approved by the Institutional Animal Care and Use Committee (IACUC) of the Nanjing Normal University and Jiangsu Association for Laboratory Animal Science. BALB/c nude mice were subcutaneously injected with 3 × 10^6 DU145 cells in the right axillary region. When the tumor volume reached 75 mm^3, nude mice were randomly divided into the following four groups (n = 5 per group): PBS, buforin IIb (5 mg/kg), 2-DG (400 mg/kg), and combination group (5 mg/kg buforin IIb + 400 mg/kg 2-DG). Buforin IIb was injected through the tail vein of mice and 2-DG was administered via oral gavage on days 1, 2, 3, 6, and 9. Body weight and tumor volume were measured three times a week. Mice were sacrificed by isoflurane inhalation followed by cervical dislocation. The tumors were excised and assessed. Tumor volume was calculated using the formula V = ab^2/2, where 'a' and 'b' are the tumor dimensions at the longest and widest points, respectively. On day 12, tumor tissues were collected and weighed. […] PCNA and TUNEL positive cells were quantified by measuring pixels in 10 consecutive fields at 40× magnification. Positive cells were scored manually.
# [4] = tested on: mouse erythrocytes; test: Hemolytic activity assay; assay type: cell-based; settings: mouse RBCs 4% (v/v), 30 min, 37 °C, absorbance 570 nm; different concentrations
# Method: The hemolytic assay was conducted using mouse red blood cells (RBCs) as the method described previously. Briefly, erythrocytes were isolated by centrifugation at 1000× g for 10 min, washed three times with PBS, and resuspended at a final concentration of 4% (v/v). After incubating cells with 2-DG and buforin IIb alone or in combination at different concentrations for 30 min at 37 °C, the mixture was centrifuged at 1000× g for 5 min to obtain the supernatant. A volume of 100 μL of supernatant was removed to a new 96-well plate and the absorbance was measured at 570 nm. PBS and 0.1% Triton X-100 were used as agents for 0 and 100% hemolysis, respectively. The percentage of hemolysis was calculated as follows: (Asample − APBS)/(ATritonX-100 − APBS) × 100%, where A is the absorbance. Data are presented as the mean ± standard error of the mean (SEM) of at 4–6 independent experiments.
# [5] = tested on: DU145 cells; test: Intracellular ATP level; assay type: cell-based, human; settings: 2 μM buforin IIb 12 h
# Method: as §1
# [6] = tested on: DU145 cells; test: Annexin V-FITC/PI apoptosis flow cytometry; assay type: cell-based, human
# Method: DU145 cells were seeded (3 × 10^5 cells/mL) into 6-well plates and treated with buforin IIb (2 μM) and 2-DG (2 mM) alone and in combination for 24 h. After collecting and washing with PBS, the cells were re-suspended in 500 μL of binding buffer, stained with FITC-conjugated Annexin V and PI, and incubated on ice in the dark for 10 min. The stained cells were analyzed by flow cytometry, and the percentage of apoptotic cells was calculated using Cell Quest software.
# [7] = tested on: prostate cancer cell line DU145; test: CCK-8 cell viability assay, DU145; assay type: cell-based, human
# Method: (§2) Cells were seeded in 96-well plates at a density of 1 × 10^5 cells/mL in medium, and then treated with different concentrations of buforin IIb and 2-DG alone or in combination for 24 h. After treatment, 10 μL CCK-8 was added to each well, and the plates were incubated in the dark at 37 °C for 2 h. Absorbance at 450 nm was measured using a […]1 multifunction microplate reader. Each experiment was performed in triplicate, and cell viability was expressed as a percentage of the control. The drug-drug interactions between buforin IIb and 2-DG were evaluated using the combination index (CI) described by Chou and Talalay, and calculated using Compusyn software (Biosoft). CI values < 1, = 1 or > 1 indicated synergy, additivity, or antagonism, respectively.
# [8] = tested on: DU145 cells; test: EdU incorporation assay (cell proliferation); assay type: cell-based, human; settings: buforin IIb 2 μM, alone or in combination, 24 h
# Method: Cultured cells were plated in 12-well plates at a density of 2 × 10^5 cells/mL and treated with buforin IIb (2 μM) and 2-DG (2 mM) alone and in combination for 24 h. Cells were then incubated with in medium containing EdU (10 μM) for 2 h, fixed with 4% paraformaldehyde for 15 min, and permeabilized with 0.2% Triton X-100 for 15 min. Cells were then incubated with EdU staining cocktail at room temperature in the dark for 30 min. After washing with PBS, cell nuclei were stained with DAPI at a concentration of 10 μg/mL for 15 min. More than five images of each well were acquired by fluorescence microscope, and the percentage of EdU-positive cells was evaluated.
# [9] = tested on: DU145 cells; test: Cell cycle analysis (PI staining, FACS); assay type: cell-based, human; settings: 2-DG 2 mM, buforin IIb 2 μM, alone or in combination, 24 h; for S/G2 population: PBS control 46.23%; for G0/G1 population (%G1): PBS control 53.7%
# Method: Cell cycle analysis was performed using the Cell Cycle Analysis Kit. Briefly, cells were seeded into 6-well culture plates at a density of 3 × 10^5 cells/mL. After treatment with 2-DG (2 mM) and buforin IIb (2 μM) alone or in combination for 24 h, cells were digested by 0.25% trypsin without EDTA, fixed in 70% cold ethanol for 5 h at 4 °C, and then stained with propidium iodide (PI) and RNase A solution for 30 min at 37 °C in the dark. The cell distribution across the cell cycle was analyzed with a FACS Vantage SE flow cytometer.
# [10] = tested on: Bcl-2, Bak, Bax, cytochrome c, caspase 3 in DU145 cells; test: Western blot of apoptosis-related proteins; assay type: cell-based, human; settings: 2 mM 2-DG 12 h and/or 2 μM buforin IIb 12 h
# Method: DU145 cells were treated with 2-DG (2 mM) for 12 h, then treated with or without buforin IIb (2 μM) for 12 h. The cells were lysed on ice for 30 min in RIPA lysis buffer, and the lysates were centrifuged at 12,000× g for 10 min at 4 °C. The supernatant was collected, separated by 12% sodium dodecyl sulfate-polyacrylamide gel electrophoresis (SDS-PAGE), and transferred onto a polyvinylidene difluoride (PVDF) membrane. After blocking with 5% skim milk in PBS, the PVDF membrane incubated with primary antibodies against Bcl-2, Bak, Bax, cytochrome C, caspase 3, and β-actin overnight at 4 °C, followed by incubating with appropriate secondary antibodies. After washing, bands were visualized by using ECL detection system according to the manufacturer’s instructions.
# [11] = tested on: normal prostatic epithelial WPMY-1 cell line; test: CCK-8 cell viability assay, WPMY-1; assay type: cell-based
# Method: as §2
# [12] = tested on: prostate cancer cell line DU145; settings: 1 mM 2-DG alone; ref 28 (Sahra et al. 2010); cited from earlier work
# Description: Glycolysis inhibitors have been studied extensively in recent years as a group of compounds with a potential anticancer activity. This is associated with increasing knowledge of metabolic disorders in cancer cells. One difference between cancer cells and normal cells is that the metabolism of cancer cells is reprogrammed to generate energy from aerobic glycolysis instead of oxidative phosphorylation, which affects mitochondrial function. One effective anticancer strategy is to combine mitochondrial and antiglycolytic drugs with different molecular targets, which may elicit synergistic e ...
# [13] = tested on: DU145 cells; test: Mitochondrial membrane potential (JC-1, flow cytometry); assay type: cell-based, human; settings: for effect on Δψm (JC-1 green/red fluorescence ratio, words): 2 mM 2-DG, 2 μM buforin IIb 12 h
# Method: The JC-1 Assay Kit was used to measure changes in mitochondrial membrane potential. Briefly, cells (5 × 10^5 cells/mL) were seeded into 6-well plates and treated with 2-DG (2 mM) for 12 h, then treated with or without buforin IIb (2 μM) for 12 h. DU145 cells were collected, washed in PBS, and incubated with 10 μg/mL JC-1 for 30 min. The cells were then collected by centrifugation and analyzed by flow cytometry. The red fluorescence indicated JC-1 aggregates, whereas green fluorescence indicated JC-1 monomers. Aggregated JC-1 (red fluorescence) indicates a high membrane potential, whereas monomer JC-1 (green fluorescence) indicates a membrane collapse.
molecule,measurement,setting,value
"O=CC[C@@H](O)[C@H](O)[C@H](O)CO [2-DG, 2-Deoxy-D-glucose]","ROS, H2DCFDA fluorescence intensity",[1],no effect on H2DCFDA fluorescence intensity
same,"lactate production, % of that in the control",[2],approximately 60%
same,tumor growth inhibition rate,[3],39.53%
same,hemolytic activity,[4],no hemolytic activity
same,activity at 2000 µM,"[5]; Homo sapiens, DU-145, 2 mM 2-DG 24 h, read-out: ATP levels, % of control levels",70%
same,induction of apoptosis,[6]; 2-DG alone (2 mM) compared with PBS control,did not induce DU145 cell apoptosis
same,effect on DU145 cell viability / growth,[7]; 2 mM 2-DG alone,did not inhibit DU145 cell growth significantly; also recorded: no significant effect on cell viability and apoptosis
same,IC50,"[7]; Homo sapiens, DU-145, CCK8 assay, 24 h, data not shown",12 mM
same,inhibition at 2000 µM,"[8]; Homo sapiens, DU-145, 2-DG 2 mM, read-out: inhibition of cell proliferation (rate)",14%
same,%G2,[9]; PBS 8.15,7.2%
same,%S,[9]; PBS 38.08,28.05%
same,S/G2 population,[9],35.25%
same,G0/G1 population (%G1),[9],64.76%
same,Bcl-2 family protein levels,[10],downregulated Bcl-2 and upregulated Bak
same,cytochrome c and caspase 3,[10],did not promote the release of cytochrome c from mitochondria or activate caspase 3
same,cytotoxicity against WPMY-1 cells,[11]; 2 mM 2-DG and 2 μM buforin IIb alone or in combination,no significant cytotoxicity
same,inhibition of viability of WPMY-1 cells,[11]; 4 mM 2-DG and 4 μM buforin IIb alone or in combination,No significant inhibition of viability
same,effect on viability of WPMY-1 cells,[11]; all tested concentrations,no effect on the viability
same,effect on cell viability and apoptosis in DU145 cells,[12],almost no effect on cell viability and apoptosis
same,"effect on Δψm (JC-1 green/red fluorescence ratio, words)",[13],no effect on Δψm
same,effect on mitochondrial Δψm and ROS production,[13]; 2-DG (2 mM) alone,no effect on mitochondrial Δψm and ROS production
Buforin IIb,"lactate production, % of that in the control",[2],~80%
same,"ATP levels, % of control levels",[5]; 2 mM 2-DG 24 h,30%
same,apoptosis,"[6]; 2 μM buforin IIb alone or with 2 mM 2-DG, 24 h, Annexin V/PI FACS",21.45%
same,inhibition of DU145 cell viability,"[7]; 2 μM buforin IIb alone or with 2 mM 2-DG, 24 h, CCK-8",25%
same,inhibition of cell proliferation (rate),[8]; 2-DG 2 mM,53%
same,S/G2 population,[9],30.06%
same,G0/G1 population (%G1),[9],69.94%
same,Bcl-2 family protein levels,[10],downregulated Bcl-2 and upregulated Bak
same,cytochrome c and caspase 3,[10],increased cytochrome c levels and induced the cleavage of procaspase 3
same,"effect on Δψm (JC-1 green/red fluorescence ratio, words)",[13],increased the green/red fluorescence ratio
